Our source for the IC50 values is patent publication US11279681B2, “3-alkyl bicyclic [4,5,0] hydroxamic acids as HDAC inhibitors” (Valo Health, Inc., priority 2015, dated 2022).

pIC50: −log10 of the molar value. Where only a bound is given, the exact number is not on record here.

The target of this experiment is T1, HDAC6 (Homo sapiens, UniProt Q9UBN7).
T1 sequence (Q9UBN7 1-1215): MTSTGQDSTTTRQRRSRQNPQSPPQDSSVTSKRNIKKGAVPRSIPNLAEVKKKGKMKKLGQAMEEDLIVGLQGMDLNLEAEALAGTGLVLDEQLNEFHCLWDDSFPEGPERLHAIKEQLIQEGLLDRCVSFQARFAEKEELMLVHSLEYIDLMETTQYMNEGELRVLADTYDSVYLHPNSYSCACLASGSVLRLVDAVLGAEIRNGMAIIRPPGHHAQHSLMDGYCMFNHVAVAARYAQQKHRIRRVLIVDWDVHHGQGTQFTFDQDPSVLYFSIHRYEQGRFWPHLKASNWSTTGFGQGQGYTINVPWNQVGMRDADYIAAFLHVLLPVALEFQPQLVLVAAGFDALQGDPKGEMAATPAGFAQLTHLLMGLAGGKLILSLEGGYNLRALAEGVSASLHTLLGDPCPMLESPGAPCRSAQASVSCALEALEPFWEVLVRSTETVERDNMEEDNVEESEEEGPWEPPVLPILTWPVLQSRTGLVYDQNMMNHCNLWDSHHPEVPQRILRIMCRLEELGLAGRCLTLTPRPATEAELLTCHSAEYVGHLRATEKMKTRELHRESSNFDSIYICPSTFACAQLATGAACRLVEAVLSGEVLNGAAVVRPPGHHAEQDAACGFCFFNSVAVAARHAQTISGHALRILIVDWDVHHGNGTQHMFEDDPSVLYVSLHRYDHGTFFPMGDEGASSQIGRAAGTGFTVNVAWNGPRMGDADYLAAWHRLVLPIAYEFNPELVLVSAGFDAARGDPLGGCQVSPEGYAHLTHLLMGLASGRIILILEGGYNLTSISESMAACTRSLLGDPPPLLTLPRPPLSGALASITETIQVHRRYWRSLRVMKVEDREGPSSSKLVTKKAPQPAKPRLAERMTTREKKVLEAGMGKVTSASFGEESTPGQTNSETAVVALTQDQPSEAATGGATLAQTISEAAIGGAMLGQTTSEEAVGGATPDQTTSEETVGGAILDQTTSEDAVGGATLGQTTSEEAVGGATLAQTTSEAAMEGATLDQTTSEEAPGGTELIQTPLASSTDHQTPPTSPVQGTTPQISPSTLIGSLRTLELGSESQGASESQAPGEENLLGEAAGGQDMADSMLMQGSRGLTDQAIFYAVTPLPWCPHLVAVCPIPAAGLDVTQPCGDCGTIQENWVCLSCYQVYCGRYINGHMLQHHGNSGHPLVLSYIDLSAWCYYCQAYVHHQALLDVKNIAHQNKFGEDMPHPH
Kind of experiment: In vitro histone deacetylase assay: enzymatic HDAC6 electrophoretic mobility shift assay. Format: biochemical. The settings on record: full length human recombinant HDAC6, 1 nM enzyme, 2 μM peptide substrate RHKK(Ac)-NH2, 25° C.; read-out: Inhibitory Concentration (IC50) Values for Representative Compounds against HDAC6, Activity Range. As to the method: The enzymatic HDAC6 assay was performed using electrophoretic mobility shift assay. […] The enzymatic reactions were assembled in 384 well plates in a total volume of 25 μL in a reaction buffer composing: 100 mM HEPES, pH7.5, 25 mM KCl, 0.1% bovine serum albumin, 0.01% Triton X-100, 1% DMSO (from compounds) 2 μM of the fluorescently labeled peptide substrate and enzyme. The enzyme was added at a final concentration of 1 nM. The peptide substrate RHKK(Ac)-NH2 was used. The compounds were tested at 12 concentrations spaced by 3× dilution intervals. Negative control samples (0%-inhibition in the absence of inhibitor) and positive control samples (100%-inhibition) were assembled in replicates of four in each assay plate. The reactions were incubated at 25° C. and quenched by the addition of 45 μL of termination buffer (100 mM HEPES, pH 7.5, 0.01% Triton X-100, 0.05% SDS).
The terminated assay plates were analyzed on LabChip® 3000 microfluidic electrophoresis instrument (Perkin Elmer/Caliper Life Sciences). The fluorescence intensity of the electrophoretically separated de-acetylated product and substrate peptide was measured. Activity in each sample was determined as the product to sum ratio (PSR): P/(S+P), where P is the peak height of the product peptide and S is the peak height of the substrate peptide. Percent inhibition (Pinh) is determined using the following equation:
Pinh=(PSR0%−PSRinh)/(PSR0%−PSR100%)*100, where PSRinh is the product sum ratio in the presence of inhibitor, PSR0% is the average product sum ration in the absence of inhibitor and PSR100% is the average product sum ratio in 100%-inhibition control samples. The IC50 values of inhibitors were determined by fitting the %-inhibition curves with 4 parameter dose-response model using XLfit 4 software.
On to `C[C@H]1COc2cc(C(=O)NO)ccc2CN1CC1CC1` [(S)-4-(cyclopropylmethyl)-N-hydroxy-3-methyl-2,3,4,5-tetrahydrobenzo[f][1,4]oxazepine-8-carboxamide], for which the pIC50 was no less than 7.00.
Under `C[C@H]1CNCc2ccc(C(=O)NO)cc2O1` [(S)—N-hydroxy-2-methyl-2,3,4,5-tetrahydrobenzo[f][1,4]oxazepine-8-carboxamide] stands 6.30 to 7.00; under `CCS(=O)(=O)N1Cc2ccc(C(=O)NO)cc2OC[C@@H]1C` [(S)-4-(ethylsulfonyl)-N-hydroxy-3-methyl-2,3,4,5-tetrahydrobenzo[f][1,4]oxazepine-8-carboxamide], no less than 7.00.
Under `CC(C)OC(=O)N1Cc2ccc(C(=O)NO)cc2OC[C@@H]1C` [isopropyl(S)-8-(hydroxycarbamoyl)-3-methyl-2,3-dihydrobenzo[f][1,4]oxazepine-4(5H)-carboxylate] stands no less than 7.00; under `O=C1CN(Cc2ccc3ccccc3c2)Cc2cc(C(=O)NO)ccc2N1`, no less than 7.00; under `CC[C@H]1COc2cc(C(=O)NO)ccc2CN1c1ccccc1C` [(S)-3-ethyl-N-hydroxy-4-(o-tolyl)-2,3,4,5-tetrahydrobenzo[f][1,4]oxazepine-8-carboxamide], no less than 7.00.
Regarding `COCCN(C)C(=O)N1Cc2ccc(C(=O)NO)cc2OC[C@@H]1C`, the pIC50 was no less than 7.00.
Under `COc1ccc(CN2Cc3ccc(C(=O)NO)cc3OC[C@@H]2C(C)C)cc1` stands no less than 7.00.
Under `Cn1ccnc1CN1CC(=O)Nc2ccc(C(=O)NO)cc2C1` stands 6.30 to 7.00.
`O=C(NO)c1ccc2c(c1)OCCN(C(=O)N1CCOCC1)C2` [N-hydroxy-4-(morpholine-4-carbonyl)-2,3,4,5-tetrahydrobenzo[f][1,4]oxazepine-8-carboxamide]: the pIC50 is 6.30 to 7.00.
Take `O=C(NO)c1ccc2c(c1)OCCN(C(=O)N1CCCCC1)C2`: the pIC50 is no less than 7.00.
Under `O=C(NO)c1ccc2c(c1)OCCN(c1nc3ccccc3s1)C2` stands 6.30 to 7.00.
Under `O=C1CN(C(=O)N2CCCCC2)Cc2cc(C(=O)NO)ccc2N1` [N-hydroxy-2-oxo-4-(piperidine-1-carbonyl)-2,3,4,5-tetrahydro-1H-benzo[e][1,4]diazepine-7-carboxamide] stands 6.30 to 7.00; under `C[C@H]1COc2cc(C(=O)NO)ccc2CN1S(=O)(=O)c1ccc(F)cc1` [(S)-4-((4-fluorophenyl)sulfonyl)-N-hydroxy-3-methyl-2,3,4,5-tetrahydrobenzo[f][1,4]oxazepine-8-carboxamide], 6.30 to 7.00; under `CC(C)[C@H]1COc2cc(C(=O)NO)ccc2CN1`, no less than 7.00.
`C[C@H]1COc2cc(C(=O)NO)ccc2CN1C` [(S)—N-hydroxy-3,4-dimethyl-2,3,4,5-tetrahydrobenzo[f][1,4]oxazepine-8-carboxamide]: the pIC50 was 6.30 to 7.00.
Under `O=C1CN(Cc2cc(F)cc(F)c2)Cc2cc(C(=O)NO)ccc2N1` stands 6.30 to 7.00; under `CCOC(=O)N1Cc2ccc(C(=O)NO)cc2OC[C@@H]1C` [ethyl(S)-8-(hydroxycarbamoyl)-3-methyl-2,3-dihydrobenzo[f][1,4]oxazepine-4(5H)-carboxylate], no less than 7.00; under `O=C(NO)c1ccc2c(c1)OC[C@H](Cc1ccccc1)N(C(=O)N1CCOCC1)C2` [(S)-3-benzyl-N-hydroxy-4-(morpholine-4-carbonyl)-2,3,4,5-tetrahydrobenzo[f][1,4]oxazepine-8-carboxamide], no less than 7.00.
Consider `COC1CCN(C(=O)N2Cc3ccc(C(=O)NO)cc3OC[C@@H]2C)CC1` [(S)-N-hydroxy-4-(4-methoxypiperidine-1-carbonyl)-3-methyl-2,3,4,5-tetrahydrobenzo[f][1,4]oxazepine-8-carboxamide], for which the pIC50 was no less than 7.00.
Under `COc1ccc(S(=O)(=O)N2Cc3ccc(C(=O)NO)cc3O[C@H](C)C2)cc1` stands 6.30 to 7.00; under `O=C(NO)c1ccc2c(c1)OCC1(CC1)N(c1ccccc1)C2` [N-hydroxy-4-phenyl-4,5-dihydro-2H-spiro[benzo[f][1,4]oxazepine-3,1′-cyclopropane]-8-carboxamide], 6.30 to 7.00; under `CC1CCCCN1C(=O)N1CCOc2cc(C(=O)NO)ccc2C1` (centres unmarked) [N-hydroxy-4-(2-methylpiperidine-1-carbonyl)-2,3,4,5-tetrahydrobenzo[f][1,4]oxazepine-8-carboxamide], no less than 7.00.
Under `CC(C)[C@H]1COc2cc(C(=O)NO)ccc2CN1c1ccncc1` [(S)-N-hydroxy-3-isopropyl-4-(pyridin-4-yl)-2,3,4,5-tetrahydrobenzo[f][1,4]oxazepine-8-carboxamide] stands less than 6.30; under `O=C1CN(Cc2ccncc2)Cc2cc(C(=O)NO)ccc2N1`, 6.30 to 7.00.
As for `CC(C)CN1Cc2ccc(C(=O)NO)cc2OC[C@@H]1C` [(S)-N-hydroxy-4-isobutyl-3-methyl-2,3,4,5-tetrahydrobenzo[f][1,4]oxazepine-8-carboxamide], the pIC50 was no less than 7.00.
Under `O=C(NO)c1ccc2c(c1)OCCN(c1ccccn1)C2` [N-hydroxy-4-(pyridin-2-yl)-2,3,4,5-tetrahydrobenzo[f][1,4]oxazepine-8-carboxamide] stands 6.30 to 7.00; under `CC1COCCN1C(=O)N1Cc2ccc(C(=O)NO)cc2OC[C@@H]1C` (stereo partly drawn) [(3S)-N-hydroxy-3-methyl-4-(3-methylmorpholine-4-carbonyl)-2,3,4,5-tetrahydrobenzo[f][1,4]oxazepine-8-carboxamide], no less than 7.00.
Under `O=C1CN(Cc2ccccc2Cl)Cc2cc(C(=O)NO)ccc2N1` stands 6.30 to 7.00; under `C[C@H]1CN(c2ccccc2)Cc2ccc(C(=O)NO)cc2O1`, less than 6.30; under `C[C@H]1COc2cc(C(=O)NO)ccc2CN1C(=O)N1CCCCC1` [(S)-N-hydroxy-3-methyl-4-(piperidine-1-carbonyl)-2,3,4,5-tetrahydrobenzo[f][1,4]oxazepine-8-carboxamide], no less than 7.00.
Under `CN1CCN(C(=O)N2CCOc3cc(C(=O)NO)ccc3C2)CC1` [N-hydroxy-4-(4-methylpiperazine-1-carbonyl)-2,3,4,5-tetrahydrobenzo[f][1,4]oxazepine-8-carboxamide] stands less than 6.30.
In the case of `O=C1CN(Cc2ccccc2OC(F)(F)F)Cc2cc(C(=O)NO)ccc2N1`, the pIC50 was no less than 7.00.
Under `C[C@@H]1COc2cc(C(=O)NO)ccc2CN1C` [(R)—N-hydroxy-3,4-dimethyl-2,3,4,5-tetrahydrobenzo[f][1,4]oxazepine-8-carboxamide] stands no less than 7.00; under `O=C1CN(Cc2cccc3c2OC(F)(F)O3)Cc2cc(C(=O)NO)ccc2N1`, no less than 7.00; under `C[C@@H]1COc2cc(C(=O)NO)ccc2CN1` [(R)—N-hydroxy-3-methyl-2,3,4,5-tetrahydrobenzo[f][1,4]oxazepine-8-carboxamide], 6.30 to 7.00.
On to `C[C@@H]1CNCc2ccc(C(=O)NO)cc2O1` [(R)—N-hydroxy-2-methyl-2,3,4,5-tetrahydrobenzo[f][1,4]oxazepine-8-carboxamide], for which the pIC50 was less than 6.30.
Under `O=C1CN(Cc2cc(F)ccc2F)Cc2cc(C(=O)NO)ccc2N1` stands 6.30 to 7.00.
